Data from article PMC7168207, “Dibasic Derivatives of Phenylcarbamic Acid as Prospective Antibacterial Agents Interacting with Cytoplasmic Membrane” (Antibiotics, 2020).
Values joined by “and” are separate entries in the source; they are usually repeats but may differ in a detail not shown here. Equal values may be shown once.

What was measured:
[1] = system: S. aureus ATCC 29213; assay: crystal violet uptake (membrane permeability); type: cell-based, Staphylococcus aureus; conditions: 64 µg/mL, 1 h; two-way ANOVA, Tukey's test, p < 0.05
Protocol: The alternation in membrane permeability was detected by crystal violet assay. Bacterial suspension treated by compounds 1f, 1g, and 1h (all 64 µg/mL) for 1 h was prepared. The uptake of crystal violet was expressed as a percentage compared to the original crystal violet solution.
The method of crystal violet uptake was used to study membrane alteration. Bacterial suspension was cultivated to log phase in CaMH and then harvested at 4500 rpm for 5 min. The cells were washed twice and resuspended in PBS containing 64 µg/mL of the tested compounds. […] A growth control without antibiotics and a control containing the same amount of DMSO as treated tubes were included. The tubes were cultivated at 37 °C for 1 h. After that, the tubes were centrifuged at 4500 rpm for 15 min and washed twice in PBS. The cells were resuspended in PBS containing crystal violet (10 µg/mL). After 15 min incubation at 37 °C and centrifugation (15 min, 4500 rpm), the absorbance of supernatant at 595 nm was measured. The experiment was repeated three times, and the results were averaged. The percentage of crystal violet uptake was counted according to the equation:(1) % of uptake = OD595 of sample/OD595 of crystal violet solution × 100

[2] = system: Candida albicans CCM 8261; assay: minimum fungistatic concentration, RPMI 1640; type: cell-based; conditions: CCM8261, CA = C albicans CCM 8261, 48 h
Protocol: Fungistatic activity was tested similarly in RPMI (Roswell Park Memorial Institute) 1640 medium (Sigma, Pool, UK). […] A growth control and sterility control were included. The colonies of C. albicans grown overnight on Sabourad dextrose agar were suspended in sterile phosphate-buffered saline (PBS) to get cell density 0.5 McFarland. The inoculum was diluted to get a final concentration of 10^3 CFU/mL in the wells. Plates were inoculated and cultivated at 37 °C for 48 h. The minimum fungistatic concentration was visually evaluated as the lowest concentration of a tested compound, which inhibited 100% of yeast growth. 5-Flucytosin (Sigma, UK) was used as a positive control.

[3] = system: S. aureus ATCC 29213 biofilm; assay: biofilm susceptibility / eradication of preformed biofilm (MTT); type: cell-based, Staphylococcus aureus; conditions: for MBEC80 (minimum biofilm eradication concentration): 80% reduction of metabolic activity of preformed biofilm, 24 h
Protocol: The ability of compounds 1f, 1g, and 1h to inhibit biofilm growth and destroy the matured biofilm of S. aureus ATCC 29213 was investigated. The inhibitory activity was studied by the method with crystal violet. The activity to disrupt matured biofilm was evaluated as a decrease of metabolic activity using the MTT assay.
Biofilms were grown as described above but without the presence of the compounds. After 48 h of incubation at 37 °C, the contents of the wells were removed, and the plates were washed three times by sterile PBS. After washing, 100 µL of tested compounds in CaMH were added to the wells. […] A growth control containing 2.5% of DMSO in CaMH was included. The plates were incubated at 37 °C for 24 h, then the solutions of compounds were removed, and the plates were gently washed three times by sterile PBS. Bacterial viability was analyzed using 100 µL of 0.05 mg/mL MTT (3-(4,5-dimethylthiazol-2-yl)- 2,5-diphenyltetrazolium bromide) in PBS in each well. The plates with MTT were incubated at 37 °C for 1–2 h in darkness, until the blue formazan crystals appeared. MTT solution was removed and the plates were washed once by PBS. Crystals of formazan were dissolved using 17% sodium dodecysulphate in 40% dimethylformamid. The absorbance at 570 nm was measured and the percentage of eradication was counted according to the equation (3) % of eradication = 100 − OD570S/OD570C × 100 where OD570S is the absorbance of the sample at 570 nm and OD570C is the absorbance of the growth control at 570 nm. The minimum biofilm eradication concentration was the lowest concentration of the compound, which reduced the metabolic activity of the biofilm by 80% compared to the growth control. The experiment was made in duplicate and repeated at least three times.

[4] = system: VRE 725B; assay: synergy with antibiotics (FIC index, checkerboard); type: cell-based, Enterococcus faecalis; conditions: combination with VAN, data not shown
Excerpt: Representatives from various classes were chosen in order to study the potential difference in synergistic activity according to the diverse mechanisms of action and resistance of these drugs. The method of minimal fractional inhibitory concentration (FIC) index (FICI) in a microtitration plate was used. FICI ≤ 0.5 means synergy; 0.5 < FICI < 1 means additivity; 1 ≤ FICI < 4 means indifference; and FICI ≥ 4 means antagonism.
The used VRE strains were isolated from American crows by Oravcova et al., and their genetic profiles were characterized. All the VRE strains were carrying genes vanA, tetM, and ermB. Strains VRE 368 and VRE 725B carried gene aac, which provided acquired aminoglycoside resistance.
For synergy effect study, a method of fractional inhibitory concentration was used. […] Raw H was used for the evaluation of MIC(A); column 12 was used for evaluation of MIC(B). The plate was inoculated by the bacterial suspension to reach final concentration of 5 × 10^5 CFU/mL in the wells. The fractional inhibitory concentration (FIC) index was calculated using the concentrations in the first nonturbid (clear) well found in each row and column along the turbidity/nonturbidity interface. To interpret the combined effect, the lowest FICI was used. A ΣFIC ≤ 0.5 means synergy; 0.5 < ΣFIC < 1 means additivity; 1 ≤ ΣFIC < 4 means indifference; and ΣFIC ≥ 4 means antagonism. The tests were made in duplicate, and the results were averaged.

Row | MIC [2] | concentration giving 80% degradation of preformed biofilm relative to MIC [3] | SMILES | crystal violet uptake compared with 1% Tween 20 (positive control) [1] | MBEC80 (minimum biofilm eradication concentration) [3] [µg/mL] | effect of the combination with VAN [4]
1 | 128 µg/mL and 252 µM |  | CCCCCOc1cccc(NC(=O)OC(CN(CCC)CCC)CN2CCCC2)c1.Cl.Cl (stereo not drawn) [1f, 1-[3-(dipropylammonio)-2-({[3-(pentyloxy)phenyl]carbamoyl}-oxy)propyl]pyrrolidinium dichloride] | No statistically significant difference | 64 | 
2 | 16 µg/mL and 30.8 µM |  | CCCCCCOc1cccc(NC(=O)OC(CN(CCC)CCC)CN2CCCC2)c1.Cl.Cl (stereo not drawn) [1g, 1-[3-(dipropylammonio)-2-({[3-(hexyloxy)phenyl]carbamoyl}oxy)propyl]pyrrolidinium dichloride] | No statistically significant difference | 16 | indifferent effect
3 | 8 µg/mL and 15 µM | two-fold | CCCCCCCOc1cccc(NC(=O)OC(CN(CCC)CCC)CN2CCCC2)c1.Cl.Cl (stereo not drawn) [1h, 1-[3-(Dipropylammonio)-2-({[3-(heptyloxy)phenyl]carbamoyl}oxy)propyl]pyrrolidinium dichloride] | No statistically significant difference | 16 | indifferent effect
